Patent US20150274719A1, “AMINO-SUBSTITUTED IMIDAZO[1,2-A]PYRIDINECARBOXAMIDES AND THEIR USE” (BAYER PHARMA AKTIENGESELLSCHAFT, priority 2012, published 2015)
Counter-ions that a name gives are not always drawn. Like-named read-outs stand apart in the source and are kept apart here.

Columns and labels:
[1] = biological target: T1, recombinant guanylate cyclase reporter cell line (Rattus norvegicus, UniProt P19686+P20595); experiment: Action on recombinant guanylate cyclase reporter cell line; assay type: cell-based; conditions: in some cases mean values from individual determinations
T1 construct: expressed in transfected cells; host or cells: recombinant reporter cell line
T1 sequence (P19686 1-690): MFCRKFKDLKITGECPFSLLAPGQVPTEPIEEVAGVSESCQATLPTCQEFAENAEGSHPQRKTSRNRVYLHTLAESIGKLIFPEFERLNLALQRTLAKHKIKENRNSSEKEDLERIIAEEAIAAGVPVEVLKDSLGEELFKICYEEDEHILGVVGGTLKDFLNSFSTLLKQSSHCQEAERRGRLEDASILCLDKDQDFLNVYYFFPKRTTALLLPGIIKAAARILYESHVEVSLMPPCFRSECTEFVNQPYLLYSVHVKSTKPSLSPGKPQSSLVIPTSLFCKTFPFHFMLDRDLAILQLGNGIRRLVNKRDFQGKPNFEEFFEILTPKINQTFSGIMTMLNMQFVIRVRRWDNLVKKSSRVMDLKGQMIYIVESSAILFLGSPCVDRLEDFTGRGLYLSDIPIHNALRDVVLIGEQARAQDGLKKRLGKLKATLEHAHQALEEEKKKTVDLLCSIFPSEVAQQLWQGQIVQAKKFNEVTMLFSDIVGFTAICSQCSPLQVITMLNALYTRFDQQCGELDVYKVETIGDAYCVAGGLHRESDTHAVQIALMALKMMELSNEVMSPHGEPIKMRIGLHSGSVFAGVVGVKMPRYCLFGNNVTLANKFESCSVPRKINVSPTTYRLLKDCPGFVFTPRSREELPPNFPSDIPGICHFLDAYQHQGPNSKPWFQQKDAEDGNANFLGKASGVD
T1 sequence (P20595 1-619): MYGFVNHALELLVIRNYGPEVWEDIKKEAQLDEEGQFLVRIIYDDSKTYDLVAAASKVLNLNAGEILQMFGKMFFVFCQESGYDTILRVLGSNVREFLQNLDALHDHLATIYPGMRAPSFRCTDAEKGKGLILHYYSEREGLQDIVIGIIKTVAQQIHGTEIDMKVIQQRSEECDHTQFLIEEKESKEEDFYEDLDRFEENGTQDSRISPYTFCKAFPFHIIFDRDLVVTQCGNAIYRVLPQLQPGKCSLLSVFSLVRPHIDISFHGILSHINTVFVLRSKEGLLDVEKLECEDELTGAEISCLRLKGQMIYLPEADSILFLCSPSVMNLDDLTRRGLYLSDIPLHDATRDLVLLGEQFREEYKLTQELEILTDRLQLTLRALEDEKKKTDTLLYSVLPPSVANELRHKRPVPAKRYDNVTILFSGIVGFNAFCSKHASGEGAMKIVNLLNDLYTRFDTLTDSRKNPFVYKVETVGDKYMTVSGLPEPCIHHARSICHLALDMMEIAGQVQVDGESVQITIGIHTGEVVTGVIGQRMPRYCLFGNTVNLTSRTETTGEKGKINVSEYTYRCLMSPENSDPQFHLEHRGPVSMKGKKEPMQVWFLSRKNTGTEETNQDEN
Outline: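 Reported value is the minimal effective concentration (MEC), in some cases a mean of single runs, taken from a recombinant rat guanylate cyclase reporter cell line.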

[2] = Determination of pharmacokinetic parameters following intravenous and oral administration (rats); assay type: in vivo, male Wistar rats; conditions: intravenous administration in rats
Method: B-6. Determination of Pharmacokinetic Parameters Following Intravenous and Oral Administration
The pharmacokinetic parameters of the compounds according to the invention are determined in male CD-1 mice, male Wistar rats and female beagles. Intravenous administration in the case of mice and rats is carried out by means of a species-specific plasma/DMSO formulation, and in the case of dogs by means of a water/PEG400/ethanol formulation. In all species, oral administration of the dissolved substance is performed via gavage, based on a water/PEG400/ethanol formulation. The taking of blood from rats is simplified by inserting a silicone catheter into the right Vena jugularis externa prior to substance administration. The operation is carried out at least one day prior to the experiment with […] and administration of an analgesic (atropin/Rimadyl (3/1) 0.1 ml s.c.). The blood is taken (generally more than 10 time points) within a time window including terminal time points of at least 24 to a maximum of 72 hours after substance administration. When the blood is taken, it is passed into heparinised tubes. Then the blood plasma is obtained by centrifugation and is optionally stored at −20° C. until further processing.
An internal standard (which may also be a chemically unrelated substance) is added to the samples of the compounds according to the invention, calibration samples and qualifiers, and there follows protein precipitation by means of excess acetone. Addition of a buffer solution matched to the LC conditions, and subsequent vortexing, is followed by centrifugation at 1000 g. The supernatant is analysed by LC-MS/MS using C18 reversed-phase columns and variable mobile phase mixtures. The substances are quantified via the peak heights or areas from extracted ion chromatograms of specific selected ion monitoring experiments.
The plasma concentration/time plots determined are used to calculate the pharmacokinetic parameters such as AUC, Cmax, t1/2 (terminal half life), F (bioavailability), MRT (mean residence time) and CL (clearance), using a validated pharmacokinetic calculation program.
Since the substance quantification is carried out in plasma, it is necessary to determine the blood/plasma distribution of the substance in order to be able to adjust the pharmacokinetic parameters correspondingly. For this purpose, a defined amount of substance is incubated in heparinized whole blood of the species in question in a rocking roller mixture for 20 min. After centrifugation at 1000 g, the plasma concentration is measured (by means of LC-MS/MS; see above) and determined by calculating the ratio of the Cblood/Cplasma value.

[3] = male, Wistar, rat, plasma, iv, read-out: MRT

Structure (SMILES) | MEC (minimal effective concentration) [1] | AUCnorm [2] | CLblood [2] | half-life ([2]; male, Wistar, rat, plasma, iv) | MRT [2, 3] | MRT [2] | t1/2 [2]
CCC(C)(N)CNC(=O)c1c(C)nc2c(OCc3c(F)cccc3F)cc(Cl)cn12 (single isomer, unassigned) [Example 194, ent-N-(2-Amino-2-methylbutyl)-6-chloro-8-[(2,6-difluorobenzyl)oxy]-2-methylimidazo[1,2-a]-pyridine-3-carboxamide] | 0.10 µM | 2.06 kg·h/L | 0.48 L/h/kg | 16.8 h | 24.4 h | – | –
Cc1nc2c(OCc3c(F)cccc3F)cc(Cl)cn2c1C(=O)NCC(N)C(C)C (single isomer, unassigned) [Example 211, ent-N-(2-Amino-3-methylbutyl)-6-chloro-8-[(2,6-difluorobenzyl)oxy]-2-methylimidazo[1,2-a]-pyridine-3-carboxamide] | 0.30 µM | 0.78 kg·h/L | 1.07 L/h/kg | 4.8 h | 6.6 h | – | –
CCC(C)(N)CNC(=O)c1c(C)nc2c(OCc3c(F)cccc3F)cc(OC)cn12 (single isomer, unassigned; enantiomer a) [Example 279, ent-N-(2-amino-2-methylbutyl)-8-[(2,6-difluorobenzyl)oxy]-6-methoxy-2-methylimidazo[1,2-a]pyridine-3-carboxamide (Enantiomer A)] | 0.3 µM | 0.42 kg·h/L | 2.76 L/h/kg | 2.3 h | 2.9 h | – | –
CCC(C)(N)CNC(=O)c1c(C)nc2c(OCc3c(F)ccc(F)c3F)cc(C)cn12 (single isomer, unassigned; enantiomer a) [Example 274, ent-N-(2-Amino-2-methylbutyl)-2,6-dimethyl-8-[(2,3,6-trifluorobenzyl)oxy]imidazo[1,2-a]-pyridine-3-carboxamide (Enantiomer A)] | 0.10 µM | 1.29 kg·h/L | 0.69 L/h/kg | 5.8 h | 8.4 h | – | –
Cc1cc(OCc2c(F)cccc2F)c2nc(C)c(C(=O)NCC(C)(N)CF)n2c1 (racemic) [Example 282, rac-N-(2-amino-3-fluoro-2-methylpropyl)-8-[(2,6-difluorobenzyl)oxy]-2,6-dimethylimidazo[1,2-a]pyridine-3-carboxamide Formate] | 0.3 µM | 0.73 kg·h/L | 1.41 L/h/kg | 4.5 h | 5.7 h | – | –
CCCC(C)(N)CNC(=O)c1c(C)nc2c(OCc3c(F)ccc(F)c3F)cc(C)cn12 (single isomer, unassigned) [Example 304, ent-N-(2-amino-2-methylpentyl)-2,6-dimethyl-8-[(2,3,6-trifluorobenzyl)oxy]imidazo[1,2-a]pyridine-3-carboxamide] | 0.10 µM | 0.34 kg·h/L | 2.27 L/h/kg | – | – | 9.4 h | 6.2 h
Cc1nc2c(OCc3c(F)cccc3F)cccn2c1C(=O)NC(CN)c1ccc(F)cc1 (single isomer, unassigned; enantiomer b) [Example 10, ent-N-[2-Amino-1-(4-fluorophenyl)ethyl]-8-[(2,6-difluorobenzyl)oxy]-2-methylimidazo[1,2-a]-pyridine-3-carboxamide (Enantiomer B)] | 0.30 µM | 2.26 kg·h/L | 0.74 L/h/kg | 4.8 h | 6.9 h | – | –
